The text below walks through data of patent publication US20140066449A1, “DIPYRIDINIUM DERIVATIVES” (SABREPHARM LIMITED, priority 2011, published 2014).

Data set [1] relates to HEK293 cells. Description: Cell death assay in HEK293 cells (PI staining, flow cytometry). The data set is classed as cell-based, human. Particulars: HEK293, 5 mM, 48 hours, in the presence of pluronic acid 0.1%. How it is done:
The ability of test compounds to impact cell death in HEK293 cells after 48 hours exposure was assessed.
HEK293 cells were seeded into a 24 well plate ([…]) in DMEM supplemented with 10% FCS, antibiotics and L-glutamine. Drugs at indicated concentrations were added followed by incubation for 48 hours at 37° C. before HEK293 cells were washed, trypsinised and resuspended in PBS prior to PI staining (0.1 μg/ml) before analysis of PI+ ve cells by flow cytometry.

For data set [2], the system named is HEK293 cells. The experiment in a line: ROS production in intact HEK293 cells (DCFDA, flow cytometry). Type of data set: cell-based, human. Particulars: 5 mM, 48 hours, absence and presence of pluronic acid 0.1%. How it is done:
The ability of test compounds to impact ROS production in intact HEK293 cells after 48 hours exposure was assessed.
HEK293 cells were stained with 2′,7′-dichlorofluorescein diacetate (DCFDA; 10 μM, 30 minutes, 37° C.). The cells were then washed and resuspended to 250×10^5/ml. The stained HEK293 cells were seeded into a 24 well plate ([…]) in DMEM supplemented with 10% FCS, antibiotics and L-glutamine. Drugs at indicated concentrations were added followed by incubation for 48 hours at 37° C. before HEK293 cells were washed, trypsinised and resuspended in PBS prior to analysis for ROS production by flow cytometry.

In data set [3] the test system is A2780/cis [cisplatin ovarian resistant line]. Description: Combination with cisplatin, A2780/cis. Type of data set: cell-based.
Data set [4] relates to A2780 [ovarian]. Description: Combination with cisplatin, A2780. Type of data set: cell-based.
The test system of data set [5] is MCF7 [Breast]. The experiment in a line: Combination with cisplatin, MCF-7. The data set is classed as cell-based, human.
In data set [6] the test system is M 14 [melanoma]. Description: Combination with cisplatin, M14. Type of data set: cell-based.
In data set [7] the test system is human mitochondria isolated from HEK293 cells. The experiment in a line: ROS production in isolated mitochondria (DCFDA). Type of data set: biochemical. Particulars: isolated HEK293 mitochondria, 100 μM, 120 mins. As for the experimental part:
The ability of test compounds to impact ROS production in isolated mitochondria after 120 mins exposure was assessed.
Mitochondria were isolated from harvested human embryonic kidney (HEK293) cells (20×10^6) using a commercial kit (Thermo Scientific) before re-suspension in PBS to a final volume of 800 μL. […] Independent experiments (each assessing the impact of all four compounds along with a positive [AAPH; 5.0 mM] and vehicle control) were repeated three times.

The test system of data set [8] is H460 non-small cell lung adenocarcinoma. Description: MTT in vitro cytotoxicity, H460. The data set is classed as cell-based. As to conditions: Homo sapiens, NCI-H460, 240 h, H460, 10 day exposure. How it is done:
(§1) All were stored in the dark at 4° C. An accurately weighed amount of each compound was dissolved in DMSO and Hank's Balanced Salt Solution (Sigma) according to Table 2 below:
(§2) Further dilutions were made in complete RPMI1640 cell culture medium (RPMI1640 cell culture medium supplemented with 10% foetal bovine serum, 1 mM L-glutamine, and 2 mM sodium pyruvate (all from Sigma)).
(§3) H460 non-small cell lung adenocarcinoma, HT-29 colon adenocarcinoma and MCF-7 breast adenocarcinoma (ECACC, Salisbury, Wiltshire) were used for analysis. Cells were cultured in complete RPMI1640 cell culture medium, and maintained as monolayer cultures at 37° C. in a humidified 5% CO2 environment.
(§4) Tumour cell growth inhibition was assessed using the MTT assay with a standard 96 hour plus an extended 10 day incubation. For the 96 hour assay 1×10^4 cells were inoculated into each well of a 96-well plate and incubated overnight at 37° C. in a humidified atmosphere containing 5% CO2 to give time to adhere to the wells and form a monolayer. For the 10 day incubation, 1×102 (H460 and HT-29) and 1×103 (MCF-7) cells were inoculated. The next day, culture medium was removed from each well and replaced with cell culture media for the untreated control, or media containing compound, and the plates then incubated for a further 96 hours or 10 days. […] After 96 hours or 10 days culture medium was removed and 200 μL of 0.5 mgmL-1 MTT solution (Sigma) in complete medium added to each well. Following a further 4 hours incubation, the solution was removed from each well and 150 μL of DMSO added to solubilise the formazan crystals resulting from MTT conversion. Absorbance values for the resulting solutions were read at 550 nm on a Multiskan Ex microplate reader (Thermo Fisher, Loughborough, UK) and cell survival calculated as the absorbance of treated cells divided by the control. Results are expressed in terms of IC50 values (i.e. concentration of compound required to kill 50% of cells), which were determined manually in Microsoft Excel from plots of concentration versus percentage cell survival, and all experiments were performed in triplicate.

A short description of data set [9]: Redox potential study, square wave voltammetry. Type of data set: physicochemical. Particulars: 0.1 mol dm-3 LiNTf2, 20° C., first scan. How it is done:
BioAnalytical Systems CV50W potentiostat (from BAS Inc., USA)
Square wave voltammetry (4 mV step, 25 mV pulse, 10 Hz SW frequency)
3 mm diameter glassy carbon working electrode (from BAS)
3 mm diameter glassy carbon counter electrode (from BAS)
Saturated calomel reference electrode (SCE, from Sycopel Scientific Ltd., UK)
0.1 mol dm-3 lithium bis(trifluoromethanesulphonyl)imide ((LiNTf2)CAS 90076-65-6, from 3M)
Voltammograms were recorded from 0.5 V to −1.2 V in deoxygenated solutions of the Compounds.

For data set [10], the system named is HT-29 colon adenocarcinoma. Description: MTT in vitro cytotoxicity, HT-29. Type of data set: cell-based. Particulars: Homo sapiens, 240 h, HT-29, 10 day exposure. As for the experimental part:
as §1, §2, §3, §4

For data set [11], the system named is MCF-7 breast adenocarcinoma. The experiment in a line: MTT in vitro cytotoxicity, MCF-7. Type of data set: cell-based, human. Particulars: Homo sapiens, MCF7, 240 h, MCF-7, 10 day exposure. How it is done:
as §1, §2, §3, §4

Data set [12] has as its system rat. As to conditions: oral; cited from earlier work.
Data set [13] has as its system Modified mouse fibroblasts Nrf2−/−. As to conditions: cited from earlier work.
Data set [14] has as its system cells (depending on the cell studied). As to conditions: read-out: LC 50, in vitro; cited from earlier work.
Data set [15] deals with dog. As to conditions: cited from earlier work.
Setting [16] is: compound 1 μM + cisplatin 10 μM.
Setting [17] is: compound 3 μM + cisplatin 10 μM.
Where [18] appears, read: compound 10 μM + cisplatin 10 μM.
[19] abbreviates: compound 10 μM + cisplatin 1 μM.
Where [20] appears, read: compound 10 μM + cisplatin 3 μM.
The mark [21] stands for this setting: highest concentration 30 μM, read-out: IC50 Run 1.
The mark [22] stands for this setting: highest concentration 100 μM, read-out: IC50 Run 2.
[23] abbreviates: highest concentration 100 μM, read-out: IC50 Run 3.
Setting [24] is: mean of runs, read-out: IC50 Mean.

Read-outs that look alike come from different tables or passages of the source.

For the molecule `CC(C)(N=NC(C)(C)C(=N)N)C(=N)N.Cl.Cl` [AAPH], the “cell death (PI staining)” value in data set [1] is listed as “inducedcell death in HEK293 cells in 2/3 experiments”. For the same molecule, the ROS production result in data set [2] is “induced ROS production in the absence and presence of pluronic acid”.

For orientation: IC50 means the midpoint of a concentration-inhibition curve. For the molecule `OCc1ccc2[n+](c1)CC[n+]1ccccc1-2` [Compound B, 3-(hydroxymethyl)-6,7-dihydrodipyrido[1,2-a:2′,1′-c]pyrazine-5,8-diium bistrifluoromethanesulfonate], the “% cell survival” value was determined as 32.1% in [3] (setting [16]); 6.5% in [3] (compound 1 μM + cisplatin 30 μM); 0% in data set [3] (compound 1 μM + cisplatin 100 μM); 74.4% in data set [3] (compound 1 μM, cisplatin 0 μM); 24.2% in data set [3] (setting [17]); 8.1% in data set [3] (compound 3 μM + cisplatin 30 μM). Further, the “% cell survival” value is reported as 3.3% in data set [3] (compound 3 μM + cisplatin 100 μM); 44.7% in [3] (compound 3 μM, cisplatin 0 μM); 9% in [3] (setting [18]); 5% in data set [3] (compound 10 μM + cisplatin 30 μM); 2.1% in data set [3] (compound 10 μM + cisplatin 100 μM); 15.4% in data set [3] (compound 10 μM, cisplatin 0 μM). Besides, the “% cell survival” value in data set [4] (compound 1 μM + cisplatin 1 μM) amounted to 55.2%; in data set [4] (compound 1 μM + cisplatin 3 μM) it was 20.3%; in data set [4] (setting [16]) it was 5.5%; in data set [4] (compound 1 μM, cisplatin 0 μM) it was 88.5%; in data set [4] (compound 3 μM + cisplatin 1 μM), 46.3%; in data set [4] (compound 3 μM + cisplatin 3 μM), 18.3%. In addition, the “% cell survival” value in data set [4] (setting [17]) is reported as 5.4%; in [4] (compound 3 μM, cisplatin 0 μM), 59%; in [4] (setting [19]) it was 20.4%; in data set [4] (setting [20]) it was 11.7%; in [4] (setting [18]), 3.9%; in [4] (compound 10 μM, cisplatin 0 μM), 35.7%. Besides, the “% cell survival” value is on record as 87.3% in data set [5] (compound 1 μM + cisplatin 0.1 μM); 77.9% in data set [5] (compound 1 μM + cisplatin 0.3 μM); 72.3% in data set [5] (compound 1 μM + cisplatin 1 μM); 76.2% in data set [5] (compound 1 μM, cisplatin 0 μM); 81.4% in [5] (compound 3 μM + cisplatin 0.1 μM); 73.2% in data set [5] (compound 3 μM + cisplatin 0.3 μM). The “% cell survival” value in data set [5] (compound 3 μM + cisplatin 1 μM) is 74.3%; in [5] (compound 3 μM, cisplatin 0 μM), 69.1%; in [5] (compound 10 μM + cisplatin 0.1 μM) it was 63.7%; in data set [5] (compound 10 μM + cisplatin 0.3 μM), 51.7%; in data set [5] (setting [19]), 46.3%; in data set [5] (compound 10 μM, cisplatin 0 μM) it was 67.3%. In addition, the “% cell survival” value in [6] (compound 1 μM + cisplatin 1 μM) was 88.4%; in [6] (compound 1 μM + cisplatin 3 μM), 83.8%; in [6] (setting [16]), 58.4%; in data set [6] (compound 1 μM, cisplatin 0 μM), 93.2%; in [6] (compound 3 μM + cisplatin 1 μM), 78.9%; in data set [6] (compound 3 μM + cisplatin 3 μM), 72%. The “% cell survival” value in [6] (setting [17]) turned out to be 47.1%; in data set [6] (compound 3 μM, cisplatin 0 μM) it was 79.7%; in data set [6] (setting [19]), 55.7%; in data set [6] (setting [20]), 50.2%; in data set [6] (setting [18]) it was 33.4%; in [6] (compound 10 μM, cisplatin 0 μM) it was 59.2%. Also, in data set [7], the “rank order of efficacy (ROS production)” value is “F>G>B>A”. Further, the “ROS production relative to vehicle treatment” value in [7] (room temperature) is “a more modest increase”. Further, the IC50 in [8] (setting [21]) was 4.7 µM; in data set [8] (setting [22]), 4.7 µM; in data set [8] (setting [23]), 5 µM; in [8] (setting [24]), 4.8 µM; in data set [10] (setting [21]), 1.8 µM; in [10] (setting [22]), 1.2 µM. Also, the half-inhibitory concentration (IC50) turned out to be 1.8 µM in data set [10] (setting [23]); 1.6 µM in data set [10] (setting [24]); 2.7 µM in [11] (setting [21]); 2.3 µM in data set [11] (setting [22]); 5.9 µM in [11] (setting [23]); 3.6 µM in data set [11] (setting [24]). Moreover, the “Reduction potential 1” value in [9] is on record as −0.460 V vs. SCE. For the same molecule, the “Reduction potential 2” value in data set [9] is reported as −0.932 V vs. SCE.

`c1cc[n+]2c(c1)-c1cccc[n+]1CC2` [Diquat]: the LD50 rat in data set [12] is 231 mg/kg. In addition, in data set [13], the “sensitivity to diquat compared to normal unmodified [wildtype] cells” value is “approximately a fourfold increase in sensitivity”. The CC50 in data set [14] was 40 to 180 µM. Further, the LD50 dog in data set [15] (in vivo, po) is 100 to 200 mg/kg.

For `COc1cccc2c1C(=O)c1c(O)c3c(c(O)c1C2=O)C[C@@](O)(C(=O)CO)C[C@@H]3O[C@H]1C[C@H](N)[C@H](O)[C@H](C)O1` [Doxorubicin], the LD50 rat in [12] is on record as 12.5 mg/kg. For the same molecule, in data set [15] (oral), the LD50 dog was 2.0 mg/kg.

With `CN(Cc1cnc2nc(N)nc(N)c2n1)c1ccc(C(=O)N[C@@H](CCC(=O)O)C(=O)O)cc1` [Methotrexate], the LD50 rat in data set [12] was 180 to 320 mg/kg. In addition, the LD50 dog in data set [15] (oral) is recorded as 120 mg/kg.
